Source: patent US20040132780A1, “Method and compositions for treating migraines” (priority 2001, published 2004)

Assay: pharmacokinetics of etoricoxib compared to traditional NSAIDs
Type: in vivo
Conditions: as compared to traditional NSAIDs such as naproxen

With `Cc1ccc(-c2ncc(Cl)cc2-c2ccc(S(C)(=O)=O)cc2)cn1` [Etoricoxib, etoricoxib] the half-life was “longer” and the “time to maximum concentration” value was “shorter”.
